Measured values: PMC12702354, “Engineered an ultrasmall curcumin oral nanoformulation restores intestinal integrity and gut microbiota dysbiosis” (Materials Today Bio, 2025)

What was measured:
[1] = system: faecal metabolites of gut bacteria; assay: Faecal metabolome analysis (GC-MS) in VAN-induced mice; format: in vivo, C57BL/6 mice
Experimental: The extract of faecal samples (40 mg/ml methanol) was prepared as described in the previous method. The obtained dry extract was derivatized with methoxyamine-HCl and BSTFA (Sigma-Aldrich, USA), followed by incubation for 1 h at 37 °C. Subsequently, the supernatant (10 μl) obtained after centrifugation at 10,000×g for 12 min was injected into an Agilent GC-MS. The injector, transfer line, and ion source were set at 280 °C, 150 °C and 230 °C, respectively. At the beginning, we set the oven temperature to 60 °C, and then increased at 60 °C/min for 2 min, followed by an increase at the rate of 10 °C/min until reaching 300 °C.

[2] = system: VAN-induced C57BL/6J mouse model; assay: VAN-induced intestinal epithelial barrier dysfunction and gut inflammation model
Experimental: This was succeeded by a daily oral administration of 50 mg/kg UsNFs of CUR for another 10 days, whereas the control group (CON) received standard rodent feed and water (Fig. 5A).

[3] = Distribution of DiR-loaded UsNFs in the GIT; format: in vivo, C57BL/6J mice; conditions: oral, 2 mg/kg DiR
Experimental: 34 Distribution of UsNFs in the GIT.
37 of 2 mg/kg DiR. […] The stomachs and
41 FITC-dextran permeability assay .
Blood samples were collected at
44 shielded from light exposure. […] Standards (0.1–
48 subtraction and subjected to statistical analysis.
The mice were divided into three groups
61 sterilized drinking water.

| SMILES | Content of butyrate in faeces ([1]; VAN-induced group (CON 1.1 %)) | Content of propionate in faeces ([1]; VAN-induced group (CON 1.3 %)) | Content of acetate in faeces ([1]; VAN-induced group (CON 1.52 %)) | Content of azelaic acid in faeces ([1]; VAN-induced group (CON 2.2 %)) | Content of 9,12,15-octadecatrienoic acid in faeces ([1]; VAN-induced group (CON 3.11 %)) | Content of 4-aminovaleric acid in faeces ([1]; VAN-induced group (CON 12.7 %)) | Content of hexanoic acid in faeces ([1]; VAN-induced group, printed from 23.7 % to 0.81 %) | Colon length increase over control group ([2]; VAN 20 mg/ml in drinking water, 10 days) | MDA level increase ([2]; VAN-induced group) | Residence in the GIT (NIR signal of DiR) [3] |
| --- | --- | --- | --- | --- | --- | --- | --- | --- | --- | --- |
| CN[C@H](CC(C)C)C(=O)N[C@H]1C(=O)N[C@@H](CC(N)=O)C(=O)N[C@H]2C(=O)N[C@H]3C(=O)N[C@H](C(=O)N[C@H](C(=O)O)c4cc(O)cc(O)c4-c4cc3ccc4O)[C@H](O)c3ccc(c(Cl)c3)Oc3cc2cc(c3O[C@@H]2O[C@H](CO)[C@@H](O)[C@H](O)[C@H]2O[C@H]2C[C@](C)(N)[C@H](O)[C@H](C)O2)Oc2ccc(cc2Cl)[C@H]1O [VAN, vancomycin] | 0.14% | 0.16% | 0.16% | 0.34% | 0.8% | 1.4% | 0.81% | 21.9% | around 2.5 times |  |
| CCCCCCCCCCCCCCCCCCN1C(=CC=CC=CC=CC2=[N+](CCCCCCCCCCCCCCCCCC)c3ccccc3C2(C)C)C(C)(C)c2ccccc21 [Free DiR, 1,1′-dioctadecyl-3,3,3′,3′-tetramethylindotricarbocyanine] |  |  |  |  |  |  |  |  |  | quick removal via feces |
